In patent publication US8318716B2, “Carbapenem derivatives” (KBP Biosciences Co., Ltd., priority 2009, dated 2012):
Values after ≈ are worked out from the molar mass of the structure shown. Like-named read-outs stand apart in the source and are kept apart here.

Key:
Type in all cases: cell-based
[1] = tested on: methicillin-sensitive Staphylococcus aureus (MSSA); test: In vitro antibacterial activity, agar dilution method, MSSA; conditions: clinically isolated strains
From the text: (§1) Bacterial strains for test: All the bacterial strains are clinically isolated strains obtained from public sources. (1) Gram-positive bacteria: methicillin-sensitive Staphylococcus aureus (MSSA), methicillin-resistant Staphylococcus aureus (MRSA), methicillin-resistant Staphylococcus epidermidis (MRSE), methicillin-sensitive Staphylococcus epidermidis (MSSE), penicillin-sensitive Streptococcus pneumoniae (PSSP), and penicillin-resistant Streptococcus pneumoniae (PRSP); (2) Gram-negative bacteria: Escherichia coli (products from ESBLs), Klebsiella pneumonia, and Pseudomonas aeruginosa.
(§2) Drugs to be tested: Compounds 1 to 5, prepared as described above; Control drugs:
(§3) Meropenem (Meropenem for injection), Imipenem (Imipenem for injection), commercially available.
(§4) Experimental Method: the agar dilution method, by reference to Methodology of Pharmacological Experiment (X U Shuyun et al, published by the Peoples Medical Publishing House, 1st Edition, August, 1982; 3rd Edition, 5th printing, January 2002, p 1659-1660).

[2] = tested on: methicillin-resistant Staphylococcus aureus (MRSA); test: In vitro antibacterial activity, agar dilution method, MRSA; conditions: clinically isolated strains
From the text: as §1, §2, §3, §4

[3] = tested on: methicillin-sensitive Staphylococcus epidermidis (MSSE); test: In vitro antibacterial activity, agar dilution method, MSSE
From the text: as §1, §2, §3, §4

[4] = tested on: methicillin-resistant Staphylococcus epidermidis (MRSE); test: In vitro antibacterial activity, agar dilution method, MRSE; conditions: clinically isolated strains
From the text: as §1, §2, §3, §4

[5] = tested on: penicillin-sensitive Streptococcus pneumoniae (PSSP); test: In vitro antibacterial activity, agar dilution method, PSSP; conditions: clinically isolated strains
From the text: as §1, §2, §3, §4

[6] = tested on: penicillin-resistant Streptococcus pneumoniae (PRSP); test: In vitro antibacterial activity, agar dilution method, PRSP; conditions: clinically isolated strains
From the text: as §1, §2, §3, §4

Klebsiella pneumonia = test: In vitro antibacterial activity, agar dilution method, klebsiella pneumonia; conditions: Klebsiella pneumoniae, clinically isolated strains
From the text: as §1, §2, §3, §4

proteus mirabilis = test: In vitro antibacterial activity, agar dilution method, proteus mirabilis; conditions: clinically isolated strains
[7] = tested on: Escherichia coli (products from ESBLs); test: In vitro antibacterial activity, agar dilution method, ESBLs; conditions: clinically isolated strains
From the text: as §1, §2, §3, §4

Pseudomonas aeruginosa = test: In vitro antibacterial activity, agar dilution method, pseudomonas aeruginosa; conditions: clinically isolated strains
From the text: as §1, §2, §3, §4

[8] = MSSE, clinically isolated strains, agar dilution, read-out: MIC90

Structure (SMILES)	MIC90 [1]	MIC90 [2]	MIC90 [3, 8]	MIC90 [4]	MIC90 [5]	MIC90 [6]	MIC90 (Klebsiella pneumonia)	MIC90 (proteus mirabilis)	MIC90 [7]	MIC90 (Pseudomonas aeruginosa)	MIC90 [3]
C[C@@H](O)[C@H]1C(=O)N2C(C(=O)O)=C(S[C@@H]3CN[C@H](C(=O)NCc4ccc(OC(F)(F)F)cc4)C3)[C@H](C)[C@H]12 [Compound 4, (4R,5S,6S)-6-((R)-1-hydroxyethyl)-4-methyl-7-oxo-3-((3S,5S)-5-(4-(trifluoromethoxy)benzylcarbamoyl)pyrrolidin-3-ylthio)-1-azabicyclo[3.2.0]hept-2-ene-2-carboxylic acid]	0.031 µg/mL (≈ 0.0585 µM)	16 µg/mL (≈ 30.2 µM)	0.031 µg/mL (≈ 0.0585 µM)	16 µg/mL (≈ 30.2 µM)	0.016 µg/mL (≈ 0.0302 µM)	0.125 µg/mL (≈ 0.236 µM)	0.031 µg/mL (≈ 0.0585 µM)	0.125 µg/mL (≈ 0.236 µM)	0.016 µg/mL (≈ 0.0302 µM)	4 µg/mL (≈ 7.55 µM)	–
C[C@@H](O)[C@H]1C(=O)N2C(C(=O)O)=C(S[C@@H]3CN[C@H](C(=O)NCc4ccc(S(N)(=O)=O)cc4)C3)[C@H](C)[C@H]12 [Compound 2]	–	16 µg/mL (≈ 30.5 µM)	0.063 µg/mL (≈ 0.12 µM)	32 µg/mL (≈ 61 µM)	0.016 µg/mL (≈ 0.0305 µM)	0.125 µg/mL (≈ 0.238 µM)	0.063 µg/mL (≈ 0.12 µM)	0.125 µg/mL (≈ 0.238 µM)	0.063 µg/mL (≈ 0.12 µM)	4 µg/mL (≈ 7.62 µM)	–
COc1ccc(CNC(=O)[C@@H]2C[C@H](SC3=C(C(=O)O)N4C(=O)[C@H]([C@@H](C)O)[C@H]4[C@H]3C)CN2)cc1 [Compound 1, (4R,5S,6S)-6-((R)-1-hydroxyethyl)-3-((3S,5S)-5-(4-methoxybenzylcarbamoyl)pyrrolidin-3-ylthio)-4-methyl-7-oxo-1-azabicyclo[3.2.0]hept-2-ene-2-carboxylic acid]	0.063 µg/mL (≈ 0.132 µM)	16 µg/mL (≈ 33.6 µM)	0.031 µg/mL (≈ 0.0652 µM)	32 µg/mL (≈ 67.3 µM)	0.016 µg/mL (≈ 0.0336 µM)	0.25 µg/mL (≈ 0.526 µM)	0.031 µg/mL (≈ 0.0652 µM)	0.125 µg/mL (≈ 0.263 µM)	0.031 µg/mL (≈ 0.0652 µM)	4 µg/mL (≈ 8.41 µM)	–
C[C@@H](O)[C@H]1C(=O)N2C(C(=O)O)=C(S[C@@H]3CN[C@H](C(=O)NCc4ccc(OC(F)F)cc4)C3)[C@H](C)[C@H]12 [Compound 5]	0.063 µg/mL (≈ 0.123 µM)	16 µg/mL (≈ 31.3 µM)	0.063 µg/mL (≈ 0.123 µM)	16 µg/mL (≈ 31.3 µM)	0.016 µg/mL (≈ 0.0313 µM)	0.25 µg/mL (≈ 0.489 µM)	0.063 µg/mL (≈ 0.123 µM)	0.125 µg/mL (≈ 0.244 µM)	0.016 µg/mL (≈ 0.0313 µM)	2 µg/mL (≈ 3.91 µM)	–
C[C@@H](O)[C@H]1C(=O)N2C(C(=O)O)=C(S[C@@H]3CN[C@H](C(=O)N(C)C)C3)[C@H](C)[C@H]12 [Meropenem, reference compound]	0.25 µg/mL (≈ 0.652 µM)	64 µg/mL (≈ 167 µM)	–	64 µg/mL (≈ 167 µM)	0.031 µg/mL (≈ 0.0808 µM)	1 µg/mL (≈ 2.61 µM)	0.063 µg/mL (≈ 0.164 µM)	0.25 µg/mL (≈ 0.652 µM)	0.031 µg/mL (≈ 0.0808 µM)	4 µg/mL (≈ 10.4 µM)	0.125 µg/mL (≈ 0.326 µM)
C[C@@H](O)[C@H]1C(=O)N2C(C(=O)O)=C(SCCN=CN)C[C@H]12 [Imipenem, reference compound]	0.063 µg/mL (≈ 0.21 µM)	32 µg/mL (≈ 107 µM)	0.031 µg/mL (≈ 0.104 µM)	64 µg/mL (≈ 214 µM)	0.016 µg/mL (≈ 0.0534 µM)	0.5 µg/mL (≈ 1.67 µM)	0.5 µg/mL (≈ 1.67 µM)	8 µg/mL (≈ 26.7 µM)	0.25 µg/mL (≈ 0.835 µM)	8 µg/mL (≈ 26.7 µM)	–
C[C@@H](O)[C@H]1C(=O)N2C(C(=O)O)=C(S[C@@H]3CN[C@H](C(=O)NCc4cccc(CCC(=O)O)c4)C3)[C@H](C)[C@H]12 [Compound 3]	0.063 µg/mL (≈ 0.122 µM)	32 µg/mL (≈ 61.8 µM)	0.031 µg/mL (≈ 0.0599 µM)	32 µg/mL (≈ 61.8 µM)	0.031 µg/mL (≈ 0.0599 µM)	0.25 µg/mL (≈ 0.483 µM)	0.031 µg/mL (≈ 0.0599 µM)	0.25 µg/mL (≈ 0.483 µM)	0.031 µg/mL (≈ 0.0599 µM)	2 µg/mL (≈ 3.86 µM)	–
